One data set concerns YBX1 mRNA. Kind of data set: YBX1 mRNA level by quantitative RT-PCR in A549 cells. In kind it is cell-based, human. The conditions noted are these: 10 nM siRNA; 24 h post-transfection. Here is the method: A549 cells were transfected with 10 nM RRM1-1 (SEQ ID NO: 4830 (DNA), and SEQ ID NO: 5136 (RNA); light grey bar in FIG. 12A), RRM1-2 (SEQ ID NO: 4831 (DNA), and SEQ ID NO: 5137 (RNA); dark grey bar in FIG. 12A), RRM1-3 (SEQ ID NO: 4832 (DNA), and SEQ ID NO: 5138 (RNA); black bar in FIG. 12A) or control siRNA (SEQ ID NO: 4804 (DNA), and SEQ ID NO: 5301 (RNA)) (open bar in FIG. 12A) and relative mRNA levels quantified 24 h post-transfection. RNA was purified from cells using Trizol® extraction as per the manufacturer's protocol (Invitrogen). cDNA was prepared by digesting approximately 200 ng purified RNA with DNAse I (Invitrogen) for 15 minutes at room temperature, followed by 15 minutes at 65° C. in the presence of 25 mM EDTA. 30 ng random primers were added and incubated for 10 minutes at room temperature, 1 minute on ice; Superscript III polymerase (Invitrogen) was added in presence of 5 nM DTT (Sigma, St Louis, Mo.) and 1 mM deoxyribonucleotides (Invitrogen), and the reaction incubated at 25° C. for 5 minutes, followed by an hour at 55° C. cDNA was diluted 1:3 in 10 mM Tris pH 7.0, and quantitative RT-PCR carried out on an ABI Prism 7900HT (Applied Biosciences, Inc., Foster City, Calif.) using FastStart TaqMan SYBRGreen (Roche, Basel, Switzerland) and specific primers at 360 nM for RRM1 and RRM2 and the housekeeping genes HPRT and Lamin. Primer sequence pairs used for RRM1, RRM2, HPRT and lamin are given in SEQ ID NO: 4881 and 4882; 4883 and 4884; 4885 and 4886; 4887 and 4888 respectively.
A549 cells were transfected with 0.1, 1.0 and 10 nM siRNA (given in SEQ ID NO: 4981 to 4985 (DNA), and SEQ ID NO: 5276-5280 (RNA)) and the relative mRNA levels quantified 24 h post-transfection as described in Example 8.

Another data set has as its system SK-Mel-5 cells. Kind of data set: Growth inhibition of siRNA-transfected SK-Mel-5 cells, SYBR Green I DNA content. In kind it is cell-based, human. The conditions noted are these: 10 nM siRNA; standardized against control siRNA. Here is the method: A549 cells (human lung cancer cell line; ATCC No. CCL-185), SK-MeI-5 cells (human melanoma cell line; ATCC No. HTB-70), MCF-7 cells (human adenocarcinoma cell line; ATCC No. HTB-22), HCT-116 cells (colorectal carcinoma; ATCC CCL-247) and HCT-116 p53 null cells (derived from ATCC No. CCL-247; Bunz et al., Science 282:1497-1501, 1998) were cultured in RPMI 1640 medium with 10% v/v heat-inactivated fetal calf serum (FCS). Cells were seeded at a density of 5×10^4 cells/cm^2 in multi-well tissue culture plates. Sequences of Stealth™ siRNA duplexes (Invitrogen) targeting human ribonucleotide reductase subunit 1 (SEQ ID NO: 22) and subunit 2 (SEQ ID NO; 38) are given in SEQ ID NO: 4830-4832 (DNA), and SEQ ID NO: 5136-5138 (RNA) for RRM1, and SEQ ID NO: 5306-5308 (DNA), and SEQ ID NO: 5303-5305 (RNA) for RRM2. siRNAs were transfected at different concentrations into cells using Lipofectamine™ RNAiMAX transfection reagent (Invitrogen). Non-specific siRNA (SEQ ID NO: 4804 and 4805 (DNA), and SEQ ID NO: 5301 and 5302 (RNA)) were used as controls. The cellular DNA content was measured using a SYBR Green I-based fluorometric assay at 24, 48, 72 and 96 hours after transfection (120 hours for the MCF-7 cells), as follows. At the indicated time points following reverse transfection, cells were harvested and frozen at −80° C. overnight. Cells were thawed and cell lysis buffer (phosphate-buffered saline (PBS) containing 1% Triton X-100, pH 7) and SYBR Green I (1:10^5 V/V; Invitrogen) was added to the wells and incubated overnight in the dark at 4° C.
The following day, cell lysates were mixed thoroughly, and DNA fluorescence was measured with a Wallac Victor^2 plate reader (Turku, Finland) set at an excitation frequency of 485 nm and measuring emission at 535 nm.
siRNA-mediated inhibition of cancer cell growth using siRNA targeting the YBX1 gene (SEQ ID NO: 92) was determined as follows. SK-MeI-5 cells were cultured in RPMI 1640 medium with 10% v/v heat-inactivated fetal calf serum. Cells were cultured as described above and reverse transfected with 0.1, 1.0, 10 and 40 nM (final concentration) of a pool of YBX1-targeting siRNAs (SEQ ID NO: 4982 and 4983 (DNA), and SEQ ID NO: 5277 and 5278 (RNA); referred to as 994 and 995 in FIG. 19) or a non-specific control (SEQ ID NO: 4804 (DNA), and SEQ ID NO: 5301 (RNA); referred to as Stealth 81 ctrl in FIG. 19), and cell growth determined after 120 h by measuring DNA fluorescence with a Wallac Victor^2 plate reader (Turku, Finland) set at an excitation frequency of 485 nm and measuring emission at 535 nm. Growth inhibition by the siRNA pool was standardized against the inhibition obtained with the control siRNAs.
siRNA-mediated RNAi was also determined on a panel of different cell lines. A549, SK-MeI-5, wt HCT-116, HCT-116−/−p53 and MCF-7 cells were transfected with 10 nM siRNAs targeting YBX-1 and growth inhibition determined as described above. The YBX1 siRNAs are given in SEQ ID NO: 4981 to 4985 (DNA) and SEQ ID NO: 5276-5280 (RNA). A non-specific siRNA (SEQ ID NO: 4804 (DNA) and SEQ ID NO: 5301 (RNA)) was used as control. Growth inhibition by the siRNAs, given in Table 14, was standardized against the inhibition obtained with the control siRNA.

The subject of data set [1] is A549 cells. The data set is described as follows: Growth inhibition of siRNA-transfected A549 cells, SYBR Green I DNA content. The class given is cell-based, human. The conditions noted are these: 10 nM siRNA; for Growth Inhibition in A549 cells: DNA content 96 hours after transfection. The method in brief:
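Growth read-out: cellular DNA quantified with SYBR Green I (485/535 nm) 96 h after transfection, cells frozen, thawed and lysed in PBS/1% Triton X-100, pH 7. Cells (A549, 5×10^3 cells/cm^2) received 10 nM siRNA by RNAiMAX; non-specific siRNA served as control; triplicate wells averaged.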

The subject of another data set is HCT-116 cells. The data set is described as follows: 5FU toxicity in HCT-116 cells after TYMS or DHFR knockdown, SYBR Green. The class given is cell-based. Conditions: 5FU continuous for 3 days, read-out: IC50 value of 5FU following TYMS knockdown, HCT-116. Here is the method: (§1) HCT-116 and A549 cells were transfected as described above with 0.1, 1.0 and 10 nM of three TYMS-specific siRNAs, labeled TYMS-1, TYMS-2 and TYM-3 (SEQ ID NO: 4833-4835 (DNA), and SEQ ID NO: 5139-5141 (RNA), or 1.0 and 10 nM control siRNAs (809-ctrl; SEQ ID NO: 4805 (DNA), and SEQ ID NO: 5302 (RNA) and 81ctrl; SEQ ID NO: 4804 (DNA), and SEQ ID NO: 5301 (RNA)). HCT-116 and A549 cells were also similarly transfected with 0.1, 1.0 and 10 nM of three DHFR-specific siRNAs, labeled DHFR-1, DHFR-2 and DHFR-3 (SEQ ID NO: 4836-4838 (DNA), and SEQ ID NO: 5142-5144 (RNA)), or control siRNA (SEQ ID NO: 4805 (DNA), and SEQ ID NO: 5302 (RNA)). Twenty four hours after transfection, cells were exposed to 5FU using a serial dilution starting at 44 μM, in medium containing either 10% normal FCS or 10% dialyzed FCS as described above. 5FU treatment was continuous for 3 days, at which time cell growth was analyzed by measuring DNA content per well using the SYBR Green assay outlined above. […] This combinatorial inhibitory effect was further increased when experiments were done in medium containing dialyzed FCS (FIGS. 27D-F; FIGS. 28D-F).
(§2) FIGS. 29 and 30 show transfection with DHFR siRNA similarly led to a dose-dependent increase in growth inhibition above that caused by the drug alone (control siRNA-transfected cells) in HCT-116 cells (FIGS. 29A-C), and A549 cells (FIGS. 30A-C). This combinatorial inhibitory effect was further increased when experiments were done in medium containing dialyzed FCS (FIGS. 29D-F; FIGS. 30D-F). The changes in the IC50 value for 5FU in HCT-116 and A549 cells following TYMS knockdown by individual siRNAs are listed in Table 16 below.

Data set [2] deals with A549 cells. Kind of data set: 5FU toxicity in A549 cells after TYMS or DHFR knockdown, SYBR Green. The class given is cell-based, human. Conditions: 5FU continuous for 3 days, read-out: IC50 value of 5FU following TYMS knockdown, A549. Here is the method:
as §1, §2

Where [3] appears, read: cells transfected with 0.1 nM siRNA.
The mark [4] stands for this setting: cells transfected with 1 nM siRNA.
Where [5] appears, read: cells transfected with 10 nM siRNA.

pIC50: −log10 of the molar value. Like-named read-outs stand apart in the source and are kept apart here.

With “SEQ ID NO: 4981: siRNA targeting YBX1 (chain 1 TGGATAGCGTCTATAATGGTTACGG; chain 2 UGGAUAGCGUCUAUAAUGGUUACGG; chemistry not given here; one strand in two spellings)”, the “YBX1-specific reduction of mRNA levels in A549 cells” value in the data set with YBX1 mRNA is “++ (At least 50% inhibition)”. Also, in the data set on SK-Mel-5 cells, the “growth inhibition, SK-Mel-5 cells” value was “++ (At least 50% inhibition)”. In addition, the “growth inhibition, A549 cells” value with A549 cells [1] (standardized against control siRNA) was “+ (At least 20% inhibition)”.

For the substance “SEQ ID NO: 4835: siRNA targeting TYMS (chain 1 ATTCAGGTAAATATGTGCATCTCCC; chain 2 AUUCAGGUAAAUAUGUGCAUCUCCC; chemistry not given here; one strand in two spellings)”, the negative-log IC50 (pIC50) is 6.49 in the data set with HCT-116 cells (setting [3]); 6.72 in the data set on HCT-116 cells (setting [4]); 6.96 in the data set with HCT-116 cells (setting [5]); 6.21 in the data set on A549 cells [2] (setting [3]); 6.89 in the data set with A549 cells [2] (setting [4]); 6.70 with A549 cells [2] (setting [5]). Besides, in the data set on A549 cells [1], the “Growth Inhibition in A549 cells” value is “++ (inhibits by at least 75%)”.

As for “SEQ ID NO: 4834: siRNA targeting TYMS (chain 1 TGTGGATCCCTTGATAAACCACAGC; chain 2 UGUGGAUCCCUUGAUAAACCACAGC; chemistry not given here; one strand in two spellings)”, the pIC50 was 6.39 with HCT-116 cells (setting [3]); 7.00 with HCT-116 cells (setting [5]); 6.23 in the data set on A549 cells [2] (setting [3]); 6.68 with A549 cells [2] (setting [4]); 6.82 with A549 cells [2] (setting [5]). Moreover, the “Growth Inhibition in A549 cells” value in the data set on A549 cells [1] was “++ (inhibits by at least 75%)”.

On to “SEQ ID NO: 4805: non-specific control siRNA (chain 1 GGGAAATGTCTCCTCCCATTGATTT; chain 2 GGGAAAUGUCUCCUCCCAUUGAUUU; chemistry not given here; one strand in two spellings) [reference compound]”, for which the pIC50 was 6.19 with HCT-116 cells (setting [3]); 6.22 in the data set with HCT-116 cells (setting [4]); 6.22 with HCT-116 cells (setting [5]); 6.09 with A549 cells [2] (setting [3]); 6.17 in the data set on A549 cells [2] (setting [4]); 6.19 in the data set on A549 cells [2] (setting [5]).
